Consider 17 sequences from patent US8900600B2, “Identification, optimization and use of cryptic HLA-A24 epitopes for immunotherapy” (VAXON Biotech, priority 2009, dated 2014).

For one test, the target named is HLA-A*2402 (Homo sapiens, UniProt P04439, D101N/D140Y/D185E/E176V/E190D/F33S/G103R/G107R/I119L/I121M/I306V/K335N/L105A/L180Q/L300P/N151K/N90K/Q86E/Q94H/R106L/R138H/R89G/T104I/T345S/V100E/W191G/Y123F). The experiment in a line: Measurement of peptide relative affinity to HLA-A*2402 (surface expression on T2-A24 cells). The following applies: for RA (Relative Affinity): T2-A24 cells, 16 hours at 37° C., relative to reference peptide standard A24, concentration inducing 30% of HLA-A*2402 expression. Format: cell-based. As to the method: Measurement of Peptide Relative Affinity to HLA-A*2402.
The protocol used has been described previously (Rohrlich et al., 2003). Briefly, T2-A24 cells were incubated at 37° C. for 16 hours with peptides concentrations ranging from 100 μM to 0.1 μM, and then stained with 0041HA monoclonal antibody (mAb)(One Lambda, Inc.) to quantify the surface expression of HLA-A*2402. For each peptide concentration, the HLA-A*2402 specific staining was calculated as the percentage of staining obtained with 100 μM of the reference peptide standard A24 (AYIDNYNKF, SEQ ID NO: 111). The relative affinity (RA) was determined as: RA=(Concentration of each peptide that induces 30% of HLA-A*2402-expression/Concentration of the reference peptide that induces 30% of HLA-A*2402 expression).

Test [1] concerns HLA-A*2402 transgenic mice. Put plainly: CTL induction in vivo in HLA-A*2402 transgenic mice (immunogenicity, Cr51 cytotoxic assay). The arrangement: key to Immunogenicity: (−) means that none of the mice vaccinated with the corresponding native peptides develops a specific immune response; (+) that less to 50% of vaccinated mice responded; (++) that more that 50% responded; key to Immunogenicity (class): −: (-) means that none of the mice vaccinated with the corresponding native peptides develops a specific immune response; (+) that less to 50% of vaccinated mice responded; (++) that more that 50% responded. The note with it: for Immunogenicity (X/Y): X mice develop a specific response for a total of Y mice vaccinated / Immunogenicity (class): Table 7, mice vaccinated with the native or modified peptide; for Immunogenicity (class): share of mice responding; for Immunogenicity: Table 5, mice vaccinated with 100 μg native peptide in IFA, share of mice with specific immune response. Here is the method:
FIG. 1: Panels 1A-1F of FIG. 1 show immunogenicity of HLA-A*2402 cryptic peptides. HLA-A*2402 transgenic mice were vaccinated with the cryptic peptides following the described protocol and generated CTL were tested against T2-A24 targets loaded with peptide as indicated (NR non relevant peptide). Percentage of specific lysis was determined as: Lysis=(Experimental Release−Spontaneous Release)/(Maximal Release−Spontaneous Release)×100. Four CTL dilutions, corresponding to four CTL/target cells ratio were tested.
(§1) The transgenic mice used in the described experiments were obtained by crossing HLA-A24 transgenic mice previously described (Barra et al., 1993) and H2 Kb^− H2 Db^− knock out mice, transgenic for both human β2 microglobulin and CD8α chain (Perarnau et al., 1999).
Mice were injected subcutaneously with 100 μg of peptide emulsified in Incomplete Freund's Adjuvant (IFA) in the presence of 150 μg of the I-A^b restricted HBVcore128 T helper epitope (TPPAYRPPNAPIL, SEQ ID NO: 112). After 15 days, 5×10^7 spleen cells were stimulated twice in vitro with peptide (10 μM), at 6 days interval. On day 13 of culture, the bulk responder populations were tested for specific cytotoxicity against target cells expressing HLA-A*2402 and loaded with the same peptide.
(§2) Targets were labelled with 100 μCi of Cr^51 for 60 min, plated in 96-well V-bottomed plates (3×10^3 cell/well in 100 μL of RPMI 1640 medium) and, when necessary, pulsed with optimized or native peptides (1 μM) at 37° C. for 2 hours. Four dilutions of effector cells were then added in the wells and incubated at 37° C. for 4 hours. Percentage of specific lysis was determined as: Lysis=(Experimental Release−Spontaneous Release)/(Maximal Release−Spontaneous Release)×100.

The test system of test [2] is HLA-A*2402 transgenic mice. Put plainly: Cross-recognition assay: CTL from mice vaccinated with optimized peptide tested on targets loaded with native peptide. It is filed as in vivo. The note with it: Table 7, CTL of mice vaccinated with the optimized peptide. Here is the method:
FIG. 2: Panels 2A-2F of FIG. 2 show immunogenicity of HLA-A*2402 restricted optimized cryptic peptides. HLA-A*2402 transgenic mice were vaccinated with the optimized peptide following the described protocol and generated CTL were tested against T2-A24 targets loaded with the optimized (immunogenicity), the corresponding native (native peptide cross recognition) or an irrelevant (NR) peptide as indicated. Percentage of specific lysis was determined as: Lysis=(Experimental Release−Spontaneous Release)/(Maximal Release−Spontaneous Release)×100. Four CTL dilutions, corresponding to four CTL/target cells ratio were tested.
as §1
Mice were injected subcutaneously with 100 μg of optimized peptide emulsified in Incomplete Freund's Adjuvant (IFA) in the presence of 150 μg of the I-A^b restricted HBVcore128 T helper epitope (TPPAYRPPNAPIL, SEQ ID NO: 112). After 15 days, 5×10^7 spleen cells were stimulated firstly in vitro with the optimized peptide (10 μM), and secondly on day 6 of culture with the corresponding native peptide. On day 13, the bulk responder populations were tested for specific cytotoxicity against targets cells expressing HLA-A*2402 and loaded with the optimized, the native or an irrelevant peptide.
as §2

For the sequence “PYDGIPARE (Cryptic HLA-A2402 restricted peptide) [Her2/neu 922, native cryptic HLA-A*2402 restricted peptide]”, in the test with HLA-A*2402, the “RA (Relative Affinity)” value is “− ((−) means RA > 100)”.
With “KYGVLLKTL (Optimized peptide derived from cryptic peptides of SEQ ID Nos 1 to 9) [TERT 403 K1L9]”, in test [1], the “Immunogenicity in HLA-A24 transgenic mice (in words)” value (“Immunogenicity … (in words)” below) is reported as “developed peptide specific CTLs”, the “Immunogenicity (X/Y): X mice develop a specific response for a total of Y mice vaccinated” value (“Immunogenicity (X/Y)” for short) was 4/15 and the “Immunogenicity (class)” value was “+ ((+) that less to 50% of vaccinated mice responded)”.
As to “TYLVQVQAL (Cryptic HLA-A2402 restricted peptide) [EphA2 502, native cryptic HLA-A*2402 restricted peptide]”, in test [2], the “Native peptide cross recognition (X/Y): X mice develop a specific response for a total of Y mice vaccinated” value (shortened to “Native peptide cross recognition (X/Y)”) was 2/3 and the “Native peptide cross recognition (class)” value is given as “++ ((++) that more that 50% responded)”. Also, in test [1], the Immunogenicity entry is on record as “−”, the “Immunogenicity (X/Y)” value is given as 0/3 and the “Immunogenicity (class)” value is given as “−”.
For “RYMRQFVAL (Optimized peptide derived from cryptic peptides of SEQ ID Nos 1 to 9) [TERT 770 R1L9]”, in test [1], the “Immunogenicity … (in words)” value is recorded as “developed peptide specific CTLs”, the “Immunogenicity (X/Y)” value is 12/18 and the “Immunogenicity (class)” value was “++ ((++) that more that 50% responded)”.
The like results for “RYVSRLLGI (Optimized peptide derived from cryptic peptides of SEQ ID Nos 1 to 9) [HER 780 R1]” were, in that order, “developed peptide specific CTLs”, 4/9 and “+ ((+) that less to 50% of vaccinated mice responded)”.
On to “PYVSRLLGI (Cryptic HLA-A2402 restricted peptide) [Her2/neu 780, native cryptic HLA-A*2402 restricted peptide]”, for which the “Binding to HLA-A*2402 (in words)” value in the test with HLA-A*2402 is recorded as “strongly binds”. For the same sequence, in test [2], the “Native peptide cross recognition (X/Y)” value is 3/9 and the “Native peptide cross recognition (class)” value is “+ ((+) that less to 50% of vaccinated mice responded)”. Also, in test [1], the “Immunogenicity … (in words)” value is “non immunogenic”, the Immunogenicity result is “−”, the “Immunogenicity (X/Y)” value is 0/8 and the “Immunogenicity (class)” value is listed as “−”.
For the sequence “RYEFLWGPR (Cryptic HLA-A2402 restricted peptide) [MAGE 261, native cryptic HLA-A*2402 restricted peptide]”, the “RA (Relative Affinity)” value with HLA-A*2402 was “− ((−) means RA > 100)”. Moreover, in test [1], the Immunogenicity result is given as “−”, the “Immunogenicity (X/Y)” value is reported as 0/3 and the “Immunogenicity (class)” value is reported as “−”.
Regarding “PYGCLLDHV (Cryptic HLA-A2402 restricted peptide) [Her2/neu 802]”, in the test with HLA-A*2402, the “Binding to HLA-A*2402 (in words)” value is listed as “binds to the HLA-A*2402” and the “RA (Relative Affinity)” value is given as “+ ((+) 5 < RA < 10)”. In test [1], the “Immunogenicity … (in words)” value was “immunogenic” and the Immunogenicity result is “++ ((++) that more that 50% responded)”.
As for “PYNYLSTDV (Cryptic HLA-A2402 restricted peptide) [Her2/neu 300, native cryptic HLA-A*2402 restricted peptide]”, the “RA (Relative Affinity)” value with HLA-A*2402 is “− ((−) means RA > 100)”. In test [1], the Immunogenicity result is reported as “−”, the “Immunogenicity (X/Y)” value is listed as 0/3 and the “Immunogenicity (class)” value was “−”.
On to “RYEFLWGPL (Optimized peptide derived from cryptic peptides of SEQ ID Nos 1 to 9) [MAGE 261 L9, modified peptide]”, for which, in test [1], the “Immunogenicity (X/Y)” value is reported as 0/9 and the “Immunogenicity (class)” value is “−”.
Taken in the same sequence, the figures for “RYNYLSTDL (Optimized peptide derived from cryptic peptides of SEQ ID Nos 1 to 9) [Her2/neu 300 R1L9, modified peptide]” were 0/9 and “−”.
As for “PYGKGWDLM (Cryptic HLA-A2402 restricted peptide) [EphA2 47, native cryptic HLA-A*2402 restricted peptide]”, in test [2], the “Native peptide cross recognition (X/Y)” value is listed as 7/9 and the “Native peptide cross recognition (class)” value is “++ ((++) that more that 50% responded)”. Further, in test [1], the Immunogenicity entry is recorded as “−”, the “Immunogenicity (X/Y)” value is 0/6 and the “Immunogenicity (class)” value is recorded as “−”.
As for “RYDGIPARL (Optimized peptide derived from cryptic peptides of SEQ ID Nos 1 to 9) [Her2/neu 922 R1L9, modified peptide]”, in test [1], the “Immunogenicity (X/Y)” value is reported as 0/9 and the “Immunogenicity (class)” value is “−”.
For “PYWELSNHE (Cryptic HLA-A2402 restricted peptide) [EphA2 817, native cryptic HLA-A*2402 restricted peptide]”, in test [2], the “Native peptide cross recognition (X/Y)” value is on record as 2/3 and the “Native peptide cross recognition (class)” value is reported as “++ ((++) that more that 50% responded)”. In test [1], the Immunogenicity result was “−”, the “Immunogenicity (X/Y)” value is 0/3 and the “Immunogenicity (class)” value is listed as “−”.
In the case of “RYLVQVQAL (Optimized peptide derived from cryptic peptides of SEQ ID Nos 1 to 9) [EphA2 502 R1]”, in test [1], the “Immunogenicity … (in words)” value is recorded as “developed peptide specific CTLs”, the “Immunogenicity (X/Y)” value is listed as 3/3 and the “Immunogenicity (class)” value is recorded as “++ ((++) that more that 50% responded)”.
The like results for “RYWELSNHL (Optimized peptide derived from cryptic peptides of SEQ ID Nos 1 to 9) [EphA2 817 R1L9]” were, in that order, “developed peptide specific CTLs”, 2/3 and “++ ((++) that more that 50% responded)”.
Taken in the same sequence, the figures for “RYGKGWDLL (Optimized peptide derived from cryptic peptides of SEQ ID Nos 1 to 9) [EphA2 47 R1L9]” were “developed peptide specific CTLs”, 7/9 and “++ ((++) that more that 50% responded)”.
